Data published in patent US8597904B2, “Pharmaceutical compositions for the treatment of conditions responsive to proteasome inhibition” (priority 2007, dated 2013).

How the values were obtained:
SK-N-SH cells [1] = details: neuroblastoma (NB) cells, Coleman et al. 2006; cited from earlier work
[2] = target: T1, proteasome activity in SK-N-SH neuroblastoma cells (Homo sapiens, UniProt P28074); details: read-out: IC50 of proteasomal activity, previously determined, Groll et al. 2008; cited from earlier work
T1 construct: endogenous in cells; host or cells: SK-N-SH
T1 sequence (P28074 60-263): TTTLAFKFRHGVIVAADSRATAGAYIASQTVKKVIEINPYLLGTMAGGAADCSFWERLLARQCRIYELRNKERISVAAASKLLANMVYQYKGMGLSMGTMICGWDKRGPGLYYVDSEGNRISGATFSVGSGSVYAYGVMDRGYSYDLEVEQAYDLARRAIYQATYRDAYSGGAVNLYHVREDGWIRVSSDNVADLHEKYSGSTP

SKOV3 cells [3] = details: values from previous studies with SylA (Coleman et al. 2006); cited from earlier work
SK-N-SH cells [4] = assay: annexin V assay by flow cytometry; assay type: cell-based, human; details: 25 μM, 48 hours
Method: SK-N-SH cells at a concentration of 1.0×10^5 cells per ml were seeded in 12-well plates containing 1 ml of culture medium per well. After 24 hours, 10 μl of syringolin A (25 μM final concentration) or an equal volume of sterile water (control) was added per well. Cells were incubated for 48 hours, trypsinized, washed twice in phosphate-buffered saline (PBS) and were counted; 1-2×10^5 cells suspended in 0.1 ml of 1× assay buffer per vial according to the manufacturer's instructions (BD Biosciences, Palo Alto, Calif.). Cells were stained with annexin V-FITC (5 μl) for 15 minutes in the dark, at room temperature. Assay buffer (0.4 ml) was added, and 5000 cells were analyzed using a FACScan flow cytometer (Becton Dickinson, San Jose, Calif.). The […] program was used for data analysis.

[5] = system: poly (ADP-ribose) polymerase (PARP); assay: Western blot of PARP cleavage in SKOV3 cells; assay type: cell-based, human; details: SKOV3, 20 μM, 24 and 48 hours
Method: The induction of an apoptotic response in cancer cells by the addition of syringolin A was verified by monitoring the cleavage of poly (ADP-ribose) polymerase (PARP), a common response during apoptosis. SK-N-SH cells were cultured in the presence or absence of 20 μM syringolin A for 0, 24 and 48 hours, and cell lysates were then generated as described in Example 4 and probed for the presence of PARP by Western blotting using rabbit polyclonal anti-PARP (#9542) (diluted 1:1000) and the HRP-linked anti-rabbit secondary antibody described in Example 4. The results were representative of four independent experiments. […] The treatment of cells for 48 hours further increased the levels of cleaved PARP, whereas noncleaved PARP disappeared. In a similar manner, syringolin A induced PARP cleavage in SKOV3 cells, but noncleaved PARP was still detected 48 hours after treatment (FIG. 5B).

SKOV3 cells [6] = assay: sulphorhodamine B (SRB) cell viability / proliferation assay; assay type: cell-based, human
Excerpt: The mammalian cell lines used to test the effects of syringolin A were human neuroblastoma (NB) cells with either wild type p53 (line SK-N-SH, provided by the American Type Culture Collection [ATCC], Manassas, Va.; Davidoff, et al. 1992. Oncogene 7:127-133; McKenzie, et al. 1999. Clin. Cancer Res. 5:4199-4207; Tweddle, et al. 2001. Am. J. Pathol. 158:2067-2077), mutant p53 (line LAN-1, cysteine to stop codon at residue 182, provided by Dr. Robert Seeger, University of California, Los Angeles, Calif.; Davidoff, et al. 1992. Oncogene 7:127-133; Tweddle, et al. 2001. Cancer Res. 61:8-13; Tweddle, et al. 2003. […] Cells were seeded 18-24 hours before GlbA or SylA treatment and analyzed after 24 and/or 48 hours. Cell numbers were determined using a haemacytometer in the presence of trypan blue (Fisher Scientific, Pittsburgh, Pa.).
To then test the effects of syringolin A on proliferation, cells at 0.25-0.5×10^5 cells per ml were seeded in 96-well microtiter plates containing 100 μl of culture medium per well. […] Cells were incubated for 48 hours, photographed, and the viability of cells (calculated as a percentage of control cell counts) was determined using the sulphorhodamine B (SRB) assay as previously reported (Skehan, et al. 1990. J. Natl. Cancer Inst. 82:1107-1112, which is incorporated herein by reference in its entirety). […]

Compound: CC(C)[C@H](NC(=O)N[C@H](C(=O)N[C@H]1/C=C/CCNC(=O)/C=C/[C@H](C(C)C)NC1=O)C(C)C)C(=O)O [syringolin A]
- reaction with Annexin V (SK-N-SH cells [1]): strongly react with Annexin V
- IC50 [2]: 1430 nM
- EC50 (SKOV3 cells [3]): ~20 µM
- annexin V binding (SK-N-SH cells [4]): strongly bound annexin V
- PARP cleavage [5]: induces apoptosis-associated PARP cleavage
- cell morphology (SKOV3 cells [6]; SKOV3, 25 μM, no detachment or floating cells): affected the cell morphology
- cell proliferation rate (SKOV3 cells [6]; SKOV3, dose-dependent): reduced the cell proliferation rate
